Read-outs that look alike come from different tables or passages of the source.
Test system: T1, Pyk2
T1 construct: full length, pET-28a N-terminal His-tag (removable by thrombin; tagged and cut similarly active), E. coli BL21(DE3), subunit 67,572 Da, homohexamer 430,881 Da by gel filtration
Experiment: coupled L-lactate dehydrogenase / NADH assay, […] nm, allosteric sigmoidal fit
Type: biochemical, Corynebacterium glutamicum
Settings: 5 mM MnSO4, 100 mM KCl, 100 mM Tris-HCl pH 7.4, 25°C, no effector, read-out: S 0.5

Km (5 mM PEP)	Km (2 mM ADP)	Structure (SMILES)
330 ± 30 µM	–	Nc1ncnc2c1ncn2[C@@H]1O[C@H](COP(=O)(O)OP(=O)(O)O)[C@@H](O)[C@H]1O [ADP]
–	4580 ± 740 µM	C=C(OP(=O)(O)O)C(=O)O [PEP]

Reference: PMC5112673, “A novel pyruvate kinase and its application in lactic acid production under oxygen deprivation in Corynebacterium glutamicum” (BMC Biotechnology, 2016)
